Literature values in patent publication US9820936B2, “Oral controlled release pharmaceutical compositions of Bepotastine” (LUPIN LIMITED, priority 2011, dated 2017).

Conditions: background statement

half life: 2.4 ± 0.1 h
Compound: O=C(O)CCCN1CCC(O[C@@H](c2ccc(Cl)cc2)c2ccccn2)CC1 [Bepotastine, (+)-(S)-4-[4-[(4-Chlorophenyl)(2-pyridyl)methoxy]piperidino]butyric acid]
